These results are taken from US20230132823A1, “BI-FUNCTIONAL COMPOUNDS AND METHODS FOR TARGETED UBIQUITINATION OF ANDROGEN RECEPTOR” (MONTELINO THERAPEUTICS, INC., priority 2020, published 2023).

The structures appear in SMILES notation. Structures can show the parent of a compound that is named as a salt. Where two headings read alike, the source gives them in different places. Where a SMILES comes first, the peptide text is derived from it. [ ]: non-standard residue; d: D form. The star is where a group is joined. X3 = O=C(NCCCCCCN*)c1cccc2sc(N3CCOCC3)nc12; Dip = N[C@H](C(=O)O)C(c1ccccc1)c1ccccc1; Chg = N[C@H](C(=O)O)C1CCCCC1; NMeA = CN[C@@H](C)C(=O)O A value given as a limit tells only on which side of the number the result lay.

One may read the IC50 as the concentration at which inhibition is half-maximal. The low end stands for higher potency, the high end for lower potency.

The test system of one assay is 22Rv1-Enz^R. Kind of assay: 22Rv1-Enz^R cell proliferation assay, GIC50 (Experimental Example 4). In kind it is cell-based. Conditions: Homo sapiens; 6-day culture, cell media changed every 24 hours. As for the experimental part: Selected compounds were tested in the human prostate cancer cell line, 22Rv1-Enz^R as described in Geun Taek Lee et al., Molecular Cancer Therapeutics, 20:490-9 (2021). These procedures are similar to that described in Experimental Example 1, above, except that the assay conditions are a 6-day culture with cell media changed every 24 hours.
In the Table: (+)—GIC50<20 μM; (++)—GIC50<10 μM; (+++)—GIC50<1 μM.

The subject of another assay is 22Rv1 cells. Kind of assay: Apoptosis assay (annexin-V, TUNEL) in 22Rv1. Particulars: 22Rv1, 1 μM, 0 to 48 hours; starts approximately three hours after treatment, increases through 48 hours. In kind it is cell-based, human. As for the experimental part:
Apoptosis Assay. An apoptosis assay is carried out using the Thermo Fisher ApoDETECT Annexin V-FITC kit following the protocol recommended by the vendor. […] Then, fixed cells are incubated with Annexin V-FITC in PBS solution for 30 minutes at room temperature. After washing three times with PBS, cells are treated with 300 nM DAPI in PBS for 5 minutes at room temperature. Finally, after washing three times with PBS, mounting solution is added and the cells are visualized using immunofluorescence microscopy. Next, a TUNEL assay is performed using Promega DeadEnd Fluorometric TUNEL system. After treatment with Test Compound and fixation as described above in the Annexin-V experiment, 100 μl of equilibration buffer is incubated for 10 min. Then, 50 μl of TdT reaction mix is added and incubated for 60 min at 37° C. in a humidified chamber. Finally, stop solution is added and samples are mounted on slides using mounting medium. To assess non-specific cytotoxicity, an LDH assay kit is used.

A further assay has as its system 22Rv1. Kind of assay: 22Rv1 cell proliferation assay (Experimental Example 1, cell count). Particulars: Homo sapiens, 22Rv1, read-out: 22Rv1 cell count decrease at 10 μM for 48 hours. In kind it is cell-based. On the procedure: The human prostate cancer cell line, 22Rv1 has been reported to express a high level of AR-V7. […] Standard culture media was RPMI-1640 supplemented with 10% fetal bovine serum. The test compound initially was dissolved in DMSO at 50 mM. This stock solution was then diluted as needed for the indicated concentrations. […]
In the Table: (+)—the cell count decreased between 0 and 20%; (++)—the cell count decreased […]; (+++)—the cell count decreased by more than 50%.

In a further assay the test system is 22Rv1-Enz^R cells. In words: 22Rv1-Enz^R cell proliferation (cell count, Experimental Example 3). Conditions: 10 μM, 4 days, MG-132 (5 μM) pretreatment. In kind it is cell-based, human. On the procedure: The human prostate cancer cell line, 22Rv1 has been reported to express a high level of AR-V7. Thus, 22Rv1 was seeded at 50,000 cells/well on a 24-well plate in quadruplicates and treated with test compound in concentrations ranging up to 20 μM for four days. Standard culture media was RPMI-1640 supplemented with 10% fetal bovine serum. The test compound initially was dissolved in DMSO at 50 mM. This stock solution was then diluted as needed for the indicated concentrations. At the end of the four-day period, cells were harvested using 1% trypsin and counted using an automated cell counter.
Cell Culture. Human CaP cell lines, LNCaP, 22Rv1, VCaP, PC3, and DU145 are obtained from the American Type Culture Collection (ATCC) and maintained in the standard culture media: RPMI-1640 supplemented with 10% fetal bovine serum (FBS). LNCaP, 22Rv1, and VCaP are androgen-responsive cell lines, while PC3 and DU145 are not. To establish SAT resistant CaP cell lines, LNCaP, 22Rv1, and VCaP are treated continuously with 10-50 μM abiraterone, apalutamide, darolutamide, or enzalutamide. After 3-6 months, stable cell lines are established and designated as LNCaP-Abi^R, LNCaP-Apa^R, LNCaP-Daro^R, LNCaP-Enz^R, VCaP-Abi^R, VCaP-Apa^R, VCaP-Daro^R, VCaP-Enz^R, 22Rv1-Abi^R, 22Rv1-Apa^R, 22Rv1-Daro^R and 22Rv1-Enz^R. Unless otherwise specified, the standard culture media for these SAT-resistant cell lines included 10 μM of their respective SAT. For the proteasome inhibitor study, the inhibitors MG132 and Epoxomicin are used. The E3 ligase inhibitors Heclin, Nutlin 3a, Thalidomide, and VH298 are used. Cell lines obtained from ATCC are confirmed by checking their morphology using optical microscopy, establishing baselines for cell proliferation, verifying species of origin using isoenzymology, and characterizing the cell's DNA fingerprint using short tandem repeat (STR) profiling. Mycoplasma contamination is also assessed using a PCR based detection system.

Where [1] appears, read: 10 μM (method: four days), read-out: 22Rv1 cell count decrease at 10 μM.

For `Cc1ncsc1-c1ccc([C@H](C)NC(=O)[C@@H]2C[C@@H](O)CN2C(=O)[C@@H](NC(=O)CCCCCCOc2c(F)ccc3sc(N4CCOCC4)nc23)C(C)(C)C)cc1` [Example 43, (2S,4R)-1-((S)-2-(7-((5-fluoro-2-morpholinobenzo[d]thiazol-4-yl)oxy)heptanamido)-3,3-dimethylbutanoyl)-4-hydroxy-N-((S)-1-(4-(4-methylthiazol-5-yl)phenyl)ethyl)pyrrolidine-2-carboxamide], in the assay with 22Rv1-Enz^R, the 50% inhibitory concentration (IC50) is below 20 µM.
As for `O=C(O)CCCCNC(=O)COc1c(-c2csc(N3CCOCC3)n2)ccc(F)c1F` [Example C1, reference compound], the “apoptosis, annexin-V assay” value in the assay on 22Rv1 cells was “no change in apoptosis”.
For the compound `O=C(COc1c(-c2csc(N3CCOCC3)n2)ccc(F)c1F)NCCCCCCCCCCNc1cccc2c1C(=O)N(C1CCC(=O)NC1=O)C2=O` (stereo not drawn) [Example 3, 2-(2,3-difluoro-6-(2-morpholinothiazol-4-yl)phenoxy)-N-(10-((2-(2,6-dioxopiperidin-3-yl)-1,3-dioxoisoindolin-4-yl)amino)decyl)acetamide], the inhibition at 10 µM with 22Rv1 (setting [1]) is below 50%. Further, in the assay on 22Rv1-Enz^R, the IC50 was below 20 µM.
Turning to `CN[C@@H](C)C(=O)N[C@H](C(=O)N1Cc2cc(OCCOCCOc3c(-c4csc(N5CCOCC5)n4)ccc(F)c3F)ccc2C[C@H]1C(=O)N[C@@H]1CCCc2ccccc21)C(C)(C)C.Cl.Cl` [Example 35, (S)-7-(2-(2-(2,3-difluoro-6-(2-morpholinothiazol-4-yl)phenoxy)ethoxy)ethoxy)-2-((S)-3,3-dimethyl-2-((S)-2-(methylamino)propanamido)butanoyl)-N-((R)-1,2,3,4-tetrahydronaphthalen-1-yl)-1,2,3,4-tetrahydroisoquinoline-3-carboxamide dihydrochloride], the inhibition at 10 µM in the assay with 22Rv1 (setting [1]) is above 50%. Also, the “reduction of 22Rv1-Enz^R cell counts after pretreatment with MG-132” value with 22Rv1-Enz^R cells was “substantially blocked”.
In the case of `Cc1ncsc1-c1ccc([C@H](C)NC(=O)[C@@H]2C[C@@H](O)CN2C(=O)[C@@H](NC(=O)CCC(=O)NCCOCCOc2c(-c3csc(N4CCOCC4)n3)ccc(F)c2F)C(C)(C)C)cc1` [Example 39, N^1-(2-(2-(2,3-difluoro-6-(2-morpholinothiazol-4-yl)phenoxy)ethoxy)ethyl)-N^4-((S)-1-((2S,4R)-4-hydroxy-2-(((S)-1-(4-(4-methylthiazol-5-yl)phenyl)ethyl)carbamoyl)pyrrolidin-1-yl)-3,3-dimethyl-1-oxobutan-2-yl)succinamide], in the assay with 22Rv1-Enz^R, the IC50 is below 20 µM.
Same read-out and setting: the figure for `Cc1ncsc1-c1ccc([C@H](C)NC(=O)[C@@H]2C[C@@H](O)CN2C(=O)[C@@H](NC(=O)CCC(=O)NCCCOc2c(-c3csc(N4CCOCC4)n3)ccc(F)c2F)C(C)(C)C)cc1` [Example 38, N^1-(3-(2,3-difluoro-6-(2-morpholinothiazol-4-yl)phenoxy)propyl)-N^4-((S)-1-((2S,4R)-4-hydroxy-2-(((S)-1-(4-(4-methylthiazol-5-yl)phenyl)ethyl)carbamoyl)pyrrolidin-1-yl)-3,3-dimethyl-1-oxobutan-2-yl)succinamide] is below 20 µM.
Turning to `Cl.NCCCCCCCCCCNc1cccc2c1C(=O)N(C1CCC(=O)NC1=O)C2=O` (stereo not drawn) [Example 34, 4-((10-aminodecyl)amino)-2-(2,6-dioxopiperidin-3-yl)isoindoline-1,3-dione hydrochloride], the inhibition at 10 µM in the assay on 22Rv1 (setting [1]) was below 50%. Moreover, in the assay on 22Rv1-Enz^R cells, the “reduction of 22Rv1-Enz^R cell counts after pretreatment with MG-132” value is listed as “substantially blocked”.
With `Cc1ncsc1-c1ccc([C@H](C)NC(=O)[C@@H]2C[C@@H](O)CN2C(=O)[C@@H](NC(=O)CCCCOc2c(-c3csc(N4CCOCC4)n3)ccc(F)c2F)C(C)(C)C)cc1` [Example 41, (2S,4R)-1-((S)-2-(5-(2,3-difluoro-6-(2-morpholinothiazol-4-yl)phenoxy)pentanamido)-3,3-dimethylbutanoyl)-4-hydroxy-N-((S)-1-(4-(4-methylthiazol-5-yl)phenyl)ethyl)pyrrolidine-2-carboxamide], in the assay on 22Rv1-Enz^R, the half-inhibitory concentration (IC50) is below 10 µM.
The same measure, in the same setting: the figure for `Cc1ccc(-c2csc(N3CCOCC3)n2)c(OCC(=O)NCCCCC(=O)N[C@H](C(=O)N2C[C@H](O)C[C@H]2C(=O)N[C@@H](C)c2ccc(-c3scnc3C)cc2)C(C)(C)C)c1C` [Example 37, (2S,4R)-1-((S)-2-(5-(2-(2,3-dimethyl-6-(2-morpholinothiazol-4-yl)phenoxy)acetamido)pentanamido)-3,3-dimethylbutanoyl)-4-hydroxy-N-((S)-1-(4-(4-methylthiazol-5-yl)phenyl)ethyl)pyrrolidine-2-carboxamide] is below 1 µM; for `Cc1ncsc1-c1ccc([C@H](C)NC(=O)[C@@H]2C[C@@H](O)CN2C(=O)[C@@H](NC(=O)CNCCOCCOc2c(-c3csc(N4CCOCC4)n3)ccc(F)c2F)C(C)(C)C)cc1` [Example 40, (2S,4R)-1-((S)-2-(2-((2-(2-(2,3-difluoro-6-(2-morpholinothiazol-4-yl)phenoxy)ethoxy)ethyl)amino)acetamido)-3,3-dimethylbutanoyl)-4-hydroxy-N-((S)-1-(4-(4-methylthiazol-5-yl)phenyl)ethyl)pyrrolidine-2-carboxamide] it is below 1 µM; for `Cc1ncsc1-c1ccc([C@H](C)NC(=O)[C@@H]2C[C@@H](O)CN2C(=O)[C@@H](NC(=O)CCCCOc2c(F)ccc3sc(N4CCOCC4)nc23)C(C)(C)C)cc1` [Example 42, (2S,4R)-1-((S)-2-(5-((5-fluoro-2-morpholinobenzo[d]thiazol-4-yl)oxy)pentanamido)-3,3-dimethylbutanoyl)-4-hydroxy-N-((S)-1-(4-(4-methylthiazol-5-yl)phenyl)ethyl)pyrrolidine-2-carboxamide] it is below 10 µM.
For the compound `O=C(COc1c(-c2csc(N3CCOCC3)n2)ccc(F)c1F)NCCCCCCNc1cccc2c1C(=O)N(C1CCC(=O)NC1=O)C2=O` (stereo not drawn) [Example 1, 2-(2,3-difluoro-6-(2-morpholinothiazol-4-yl)phenoxy)-N-(6-((2-(2,6-dioxopiperidin-3-yl)-1,3-dioxoisoindolin-4-yl)amino)hexyl)acetamide], in the assay with 22Rv1 (setting [1]), the inhibition at 10 µM is below 50%. In the assay on 22Rv1-Enz^R, this compound yielded a half-inhibitory concentration (IC50) below 20 µM.
Take `CN[C@@H](C)C(=O)N[C@H](C(=O)N1CCC[C@H]1C(=O)N[C@H](C(=O)NCCCCCCNC(=O)c1cccc2sc(N3CCOCC3)nc12)C(c1ccccc1)c1ccccc1)C1CCCCC1` [Example 31, N-(6-((S)-2-((S)-1-((S)-2-cyclohexyl-2-((S)-2-(methylamino)propanamido)acetyl)pyrrolidine-2-carboxamido)-3,3-diphenylpropanamido)hexyl)-2-morpholinobenzo[d]thiazole-4-carboxamide] (H-[NMeA][Chg]P[Dip]-X3): the inhibition at 10 µM in the assay on 22Rv1 was above 50%.
In the case of `CN[C@@H](C)C(=O)N[C@H](C(=O)N1Cc2cc(OCCOCCOCCOc3c(-c4csc(N5CCOCC5)n4)ccc(F)c3F)ccc2C[C@H]1C(=O)N[C@@H]1CCCc2ccccc21)C(C)(C)C` [Example 36, (S)-7-(2-(2-(2-(2,3-difluoro-6-(2-morpholinothiazol-4-yl)phenoxy)ethoxy)ethoxy)ethoxy)-2-((S)-3,3-dimethyl-2-((S)-2-(methylamino)propanamido)butanoyl)-N-((R)-1,2,3,4-tetrahydronaphthalen-1-yl)-1,2,3,4-tetrahydroisoquinoline-3-carboxamide dihydrochloride], the inhibition at 10 µM in the assay on 22Rv1 (setting [1]) was above 50%.
